The results in this text go back to ChEMBL document CHEMBL1759874, “Feruloylacetone as the model compound of half-curcumin: synthesis and antioxidant properties” (2011).

The source made the active and inactive calls. No cut-off for these calls is given here.

Test [1] can be described thus: Antioxidant activity against singlet oxygen radicals assessed as decrease of 4-nitroso-N,N-dimethylaniline decolorization after 40 mins by quenching assay. The test is classed as functional.
Test [2] in a line: Antioxidant activity against protection of autooxidation of linoleic acid at 50 uM by beta-carotene bleaching test. The test is classed as functional.
Test [3] in a line: Antioxidant activity against AAPH-induced DNA damage assessed as TBARS production. The test is classed as functional.
The test system of test [4] is Erythrocyte. As to the kind of experiment: Antioxidant activity in human erythrocytes assessed as inhibition of hemin-induced hemolysis after 30 mins. The test is classed as functional, cell-based.
Test [5] can be described thus: Antioxidant activity assessed as ABTS free radical scavenging activity at 50 uM. Type of test: functional.
Test [6] can be described thus: Antioxidant activity against AAPH-induced methyl linoleate oxidation assessed as inhibition period at 50 uM by beta-carotene bleaching test. Type of test: functional.
Test [7] in a line: Antioxidant activity against hydroxyl radical-induced DNA damage assessed as TBARS production at 0.2 mM after 30 mins. The test is classed as functional.
Test [8] concerns Radical scavenging activity. As to the kind of experiment: Antioxidant activity assessed as DPPH free radical scavenging activity at 50 uM. The test is classed as functional. Background: DPPH is a stable violet radical that fades when it is reduced.
A short description of test [9]: Antioxidant activity against AAPH-induced hemolysis in human erythrocytes assessed as inhibition time. Type of test: functional, Erythrocyte.
Test [10] is described as follows: Antioxidant activity against AAPH-induced DNA damage assessed as inhibition period for TBARS production. Type of test: functional.
Test [11] can be described thus: Antioxidant activity against AAPH-induced methyl linoleate oxidation at 50 uM after 120 mins by beta-carotene bleaching test. The test is classed as functional.
Test [12] is described as follows: Antioxidant activity assessed as galvinoxyl free radical scavenging activity at 25 uM. Type of test: functional.
A short description of test [13]: Antioxidant activity against singlet oxygen radicals assessed as decrease of 4-nitroso-N,N-dimethylaniline decolorization at up to 240 uM after 40 mins by quenching assay. The test is classed as functional.
Test [14] deals with Erythrocyte. As to the kind of experiment: Antioxidant activity in human erythrocytes assessed as inhibition of hemin-induced hemolysis at up to 120 uM after 30 mins. The test is classed as functional, cell-based.
The nature of test [15]: Antioxidant activity against singlet oxygen radicals assessed as decrease of 4-nitroso-N,N-dimethylaniline decolorization at 250 uM after 40 mins by quenching assay. The test is classed as functional.
Test [16] is described as follows: Antioxidant activity against Cu2+/GSH-induced oxidation of DNA assessed as TBARS production at 0.2 mM after 30 mins. Type of test: functional.
Test [17] in a line: Antioxidant activity against singlet oxygen radicals assessed as decrease of 4-nitroso-N,N-dimethylaniline decolorization at 150 uM after 40 mins by quenching assay. The test is classed as functional.
The nature of test [18]: Antioxidant activity against AAPH-induced hemolysis in human erythrocytes assessed as inhibition time at 18 uM. The test is classed as functional, Erythrocyte.
A short description of test [19]: Antioxidant activity against AAPH-induced hemolysis in human erythrocytes assessed as inhibition time at 36 uM. Type of test: functional, Erythrocyte.
Test [20] has as its system Erythrocyte. As to the kind of experiment: Antioxidant activity against AAPH-induced hemolysis in human erythrocytes at 54 uM. Type of test: functional, cell-based.

As to `COc1cc(CCC(=O)CC(C)=O)ccc1O`, the Activity result in [1] was “Dose-dependent effect”; in the test with Erythrocyte [4], “Dose-dependent effect”; in test [5], 3.85 µM/min; in test [8], 16.9 µM/min; in test [11] (TDE = time-dependent effect), “tde”; in test [12], 0.06 µM/min. Besides, the result in test [2] was inactive. The outcome in test [3] and in [7] was Active. The results for the TIME in test [6] and in [10] were 2.67 h and 0.0318 h, respectively. Also, the Time in [9] turned out to be 3.48 min.
As to `COc1cc(/C=C/C(O)CC(C)O)ccc1O` (stereo not given), the outcome in test [2], in test [3] and in test [7] was Active. Besides, the outcome (in test [13]; in the test with Erythrocyte [14]) was inactive. The Activity in test [5] was 6.26 µM/min; in [8], 8.57 µM/min; in test [11] (TDE = time-dependent effect), “tde”; in test [12] it was 0.13 µM/min. Also, the TIME in test [6] came to 1.95 h; in [10], 0.0185 h. The Time in test [9] is on record as 2.05 min.
In the case of `CCOC(=O)/C(=C/c1ccc(O)c(OC)c1)C(C)=O`, the Activity entry in test [1] is “Dose-dependent effect”; in the test on Erythrocyte [4] it was “Dose-dependent effect”; in test [5] it was 1.78 µM/min; in test [8], 7.54 µM/min; in test [12], 0.02 µM/min. Also, the outcome in test [2] and in [11] was inactive. In addition, the outcome in test [3], in [7] and in [15] was Active. Further, the Time in test [9] is 1.83 min. Besides, the TIME in test [10] stood at 0.0137 h.
In the case of `COc1cc(/C=C/C(=O)CC(C)=O)ccc1O`, the Activity entry in test [1] is “Dose-dependent effect”; in test [5] it was 6.04 µM/min; in test [8], 22.3 µM/min; in [11] (TDE = time-dependent effect), “tde”; in test [12], 0.13 µM/min. The outcome in [2], in test [3], in test [16] and in test [7] was Active. For the same molecule, the TIME in test [6] was 3.68 h; in test [10] it was 0.0237 h. The result in the test on Erythrocyte [14] was inactive. The Time in [9] is listed as 2.38 min.
Regarding `COc1cc(/C=C/C(=O)CC(=O)/C=C/c2ccc(O)c(OC)c2)ccc1O` [CURCUMIN], the Time in [9] is 3.45 min. Further, in test [10], the TIME amounted to 0.0405 h.
Regarding `CC(=O)CC(=O)/C=C/c1ccc(O)c(O)c1`, the Activity entry was “Dose-dependent effect” in test [1]; “Dose-dependent effect” in the test on Erythrocyte [4]; 7.56 µM/min in [5]; 41.2 µM/min in test [8]; “tde” in test [11] (TDE = time-dependent effect); 0.08 µM/min in test [12]. The result in test [2], in [3], in [16] and in [7] was Active. The figures for the TIME in [6] and in [10] were 3.73 h and 0.0428 h, respectively. Also, the Time in test [9] is given as 3.92 min.
As for `COc1cc(/C=C/C(=O)CC(C)=O)ccc1OCc1ccccc1`, in [1], the Activity result is “Dose-dependent effect”. Besides, the result (in test [2]; in the test with Erythrocyte [14]; in test [11]) was inactive. Also, the result (in [3]; in [17]; in test [7]; in the test on Erythrocyte [20]) was Active. The Time in [18] is reported as 80 min; in [9] it was 3.3 min; in [19], 56 min.
